Results on 3 compounds are retold here after ChEMBL document CHEMBL1629576, “Microanalysis of beta-lactam antibiotics and vancomycin in plasma for pharmacokinetic studies in neonates” (Antimicrob Agents Chemother, 2009).

What all share (type): ADME, organism-based
Data set [1] has as its system Plasma. Kind of data set: Volume of distribution in extracorporeal membrane oxygenation-treated human neonatal plasma at 20 mg/kg, po by UPLC-MS/MS analysis. On the set-up: dose 20 mg/kg, route oral. The conditions noted are these: in vivo.
Data set [2] can be described thus: Volume of distribution in extracorporeal membrane oxygenation-treated human neonatal plasma at 25 mg/kg SID by UPLC-MS/MS analysis. On the set-up: dose 25 mg/kg.
Data set [3] is described as follows: Elimination rate constant in extracorporeal membrane oxygenation-treated human neonatal plasma at 25 mg/kg QID by UPLC-MS/MS analysis. On the set-up: dose 25 mg/kg.
The nature of data set [4]: Elimination rate constant in extracorporeal membrane oxygenation-treated human neonatal plasma treatment at 50 mg/kg BID by UPLC-MS/MS analysis. On the set-up: dose 50 mg/kg.
The nature of data set [5]: Volume of distribution in extracorporeal membrane oxygenation-treated human neonatal plasma at 50 mg/kg BID by UPLC-MS/MS analysis. On the set-up: dose 50 mg/kg.
In data set [6] the test system is Plasma. Kind of data set: Intercompartmental clearance rate from peripheral to central side of extracorporeal membrane oxygenation-treated human neonatal plasma at 20 mg/kg, po by UPLC-MS/MS analysis. The conditions noted are these: in vivo. Further details: dose 20 mg/kg, route oral.
The test system of data set [7] is Plasma. Nature of the data set: Intercompartmental clearance rate from central to peripheral side of extracorporeal membrane oxygenation-treated human neonatal plasma at 20 mg/kg, po by UPLC-MS/MS analysis. On the set-up: dose 20 mg/kg, route oral. The conditions noted are these: in vivo.

Take `CC1(C)S[C@@H]2[C@H](NC(=O)[C@H](N)c3ccc(O)cc3)C(=O)N2[C@H]1C(=O)O` [AMOXICILLIN]: the Vd in data set [1] came to 1.03 L/kg; in data set [2] it was 0.713 L/kg. The k el in data set [3] is 9.17e-05 s⁻¹.
For the compound `CO/N=C(\C(=O)N[C@@H]1C(=O)N2C(C(=O)O)=C(COC(C)=O)CS[C@H]12)c1csc(N)n1` [CEFOTAXIME], the k el in data set [4] is 5.47e-05 s⁻¹. For the same compound, the Vd in data set [5] was 0.912 L/kg.
In data set [6], `CN[C@H](CC(C)C)C(=O)N[C@H]1C(=O)N[C@@H](CC(N)=O)C(=O)N[C@H]2C(=O)N[C@H]3C(=O)N[C@H](C(=O)N[C@H](C(=O)O)c4cc(O)cc(O)c4-c4cc3ccc4O)[C@H](O)c3ccc(c(Cl)c3)Oc3cc2cc(c3O[C@@H]2O[C@H](CO)[C@@H](O)[C@H](O)[C@H]2O[C@H]2C[C@](C)(N)[C@H](O)[C@H](C)O2)Oc2ccc(cc2Cl)[C@H]1O` [VANCOMYCIN] registered a k21 of 2.634 h⁻¹. For the same compound, in data set [7], the k12 turned out to be 1.5 h⁻¹.
